# Data from patent US20100159093A1, “METHOD OF TREATING FOODSTUFF” (priority 2008, published 2010).
# Tests used:
# psychrotrophs = assay: Growth of psychrotrophs in raw milk under nitrogen gas; assay type: cell-based; conditions: 12.0° C., N1 environment (120 ml/min)
# Procedure: With the device shown in FIG. 1, the effect of nitrogen gas on the natural microflora in raw milk (volume approximately 125 ml) was examined by replacing the air (control) in an open vessel (volume approximately 250 ml) at a constant temperature, with a flow-through of 100% nitrogen gas (purity 99.999%, manufacturer AGA) at two different flow-through rates: N1=120 ml/min, N2=40 ml/min. The temperature of the raw milk in the sample bottles was adjusted by means of the thermostat (14) of the water bath to bring the temperature of the milk to 6.0° C., 7.0° C. or 12.0° C. The temperature variation in the vessel was less than ±0.1° C. The effect of nitrogen gas on the growth of the microflora in a raw milk sample at 12.0° C. Two flow-through rates of the nitrogen gas were used in the study: (▴) 40 ml/min and ([…]) 120 ml/min. […] The following bacterial levels were determined in the samples: The effect of nitrogen gas on the growth of the microflora in a raw milk sample at 12.0° C. Two flow-through rates of the nitrogen gas were used in the study: (▴) 40 ml/min and ([…]) 120 ml/min. […] The following bacterial levels were determined in the samples: […]
# [1] = tested on: microaerobic/fermentative microbes (such as lactobacilli); assay: Growth of lactobacillus-type bacteria in raw milk under nitrogen gas; assay type: cell-based; conditions: 12.0° C., N1 environment (120 ml/min), Example 5, FIG. 5G
# Procedure: With the device shown in FIG. 1, the effect of nitrogen gas on the natural microflora in raw milk (volume approximately 125 ml) was examined by replacing the air (control) in an open vessel (volume approximately 250 ml) at a constant temperature, with a flow-through of 100% nitrogen gas (purity 99.999%, manufacturer AGA) at two different flow-through rates: N1=120 ml/min, N2=40 ml/min. The temperature of the raw milk in the sample bottles was adjusted by means of the thermostat (14) of the water bath to bring the temperature of the milk to 6.0° C., 7.0° C. or 12.0° C. The temperature variation in the vessel was less than ±0.1° C. The effect of nitrogen gas on the growth of the microflora in a raw milk sample at 12.0° C. Two flow-through rates of the nitrogen gas were used in the study: (▴) 40 ml/min and ([…]) 120 ml/min. […] The following bacterial levels were determined in the samples: FIG. 5A: Total bacteria count (p.m.y./ml) FIG. 5B: Total number of psychrotrophs (p.m.y./ml) FIG. 5C: Total number of proteolytic bacteria (p.m.y./ml) FIG. 5D: Total number of lipolytic bacteria (p.m.y./ml) FIG. 5E: Total number of bacteria producing phospholipase (p.m.y./ml). […]
# [2] = tested on: anaerobic spores, such as C. tyrobutyricum; assay: Anaerobic spore count in raw milk under nitrogen gas; assay type: cell-based; conditions: 12.0° C., N1 environment (120 ml/min), Example 5, FIG. 5L
# Procedure: With the device shown in FIG. 1, the effect of nitrogen gas on the natural microflora in raw milk (volume approximately 125 ml) was examined by replacing the air (control) in an open vessel (volume approximately 250 ml) at a constant temperature, with a flow-through of 100% nitrogen gas (purity 99.999%, manufacturer AGA) at two different flow-through rates: N1=120 ml/min, N2=40 ml/min.
# The temperature of the raw milk in the sample bottles was adjusted by means of the thermostat (14) of the water bath to bring the temperature of the milk to 6.0° C., 7.0° C. or 12.0° C. The temperature variation in the vessel was less than ±0.1° C.
# The effect of nitrogen gas on the growth of the microflora in a raw milk sample at 12.0° C. Two flow-through rates of the nitrogen gas were used in the study: (▴) 40 ml/min and ([…]) 120 ml/min. […] The following bacterial levels were determined in the samples:
# FIG. 5A: Total bacteria count (p.m.y./ml) FIG. 5B: Total number of psychrotrophs (p.m.y./ml) FIG. 5C: Total number of proteolytic bacteria (p.m.y./ml) FIG. 5D: Total number of lipolytic bacteria (p.m.y./ml) FIG. 5E: Total number of bacteria producing phospholipase (p.m.y./ml). […]
# [3] = tested on: psychrotrophic bacteria in raw milk and lactic acid bacteria; conditions: 4° C., closed vessel, Murray et al.; cited from earlier work
# [4] = tested on: psychrotrophs in raw milk; conditions: 7° C., closed system, Dechemi et al.; cited from earlier work
smiles,measurement,setting,value
N#N [nitrogen gas],growth of the psychrotrophs,psychrotrophs; Example 4 sample,"no longer prevents the growth of the psychrotrophs, instead it delays it"
same,growth of the psychrotrophs,psychrotrophs; Example 5 sample,substantially delay
same,growth of microaerobic/fermentative microbes (such as lactobacilli),[1],able to delay the growth
same,formation (sporulation) of anaerobic spores,[2],does not increase the formation (sporulation)
same,growth of the psychrotrophic bacteria in raw milk and of the lactic acid bacteria,[3],only slightly slowed down the growth
same,production of the proteolytic exoenzymes by the psychrotrophic bacteria,[3],effectively prevented the production
same,"effect of inhibiting the protease activity, among the gas alternatives tested",[4],neither the best nor the worst one
same,"preventing the growth of the microbes and inhibiting the lipase activity, among the protecting gases used",[4],least effective
